Results reported in ChEMBL document CHEMBL1147300, “Plant antiviral agents, VI. Isolation of antiviral phenolic glucosides from Populus cultivar Beaupre by droplet counter-current chromatography” (1989).
Activity calls are given as the source filed them. No cut-off for these calls is given here.

What was measured:
Semliki Forest virus [1] = assay: Antiviral activity against Semliki forest virus infected in african green monkey Vero cells assessed as ratio of viral titer in absence to presence of compound at 500 ug/ml by 50% endpoint titration technique; type: functional, organism-based
Measles morbillivirus = assay: Antiviral activity against Measles virus infected in african green monkey Vero cells assessed as ratio of viral titer in absence to presence of compound at 500 ug/ml by 50% endpoint titration technique; type: functional, organism-based
Enterovirus C [2] = assay: Antiviral activity against Poliovirus infected in african green monkey Vero cells assessed as ratio of viral titer in absence to presence of compound at 5 ug/ml by 50% endpoint titration technique; type: functional
Coxsackievirus [3] = assay: Antiviral activity against Coxsackievirus infected in african green monkey Vero cells assessed as ratio of viral titer in absence to presence of compound at 5 ug/ml by 50% endpoint titration technique; type: functional
Human alphaherpesvirus 1 = assay: Antiviral activity against Herpes simplex virus type 1 infected in african green monkey Vero cells assessed as ratio of viral titer in absence to presence of compound at 500 ug/ml by 50% endpoint titration technique; type: functional, organism-based
Coxsackievirus [4] = assay: Antiviral activity against Coxsackievirus infected in african green monkey Vero cells assessed as ratio of viral titer in absence to presence of compound at 500 ug/ml by 50% endpoint titration technique; type: functional, organism-based
[5] = tested on: Trichophyton mentagrophytes; assay: Antifungal activity against Trichophyton mentagrophytes at 500 ug/ml; type: functional, organism-based
Aspergillus niger = assay: Antifungal activity against Aspergillus niger at 500 ug/ml; type: functional, organism-based
Enterovirus C [6] = assay: Antiviral activity against Poliovirus infected in african green monkey Vero cells assessed as ratio of viral titer in absence to presence of compound at 25 ug/ml by 50% endpoint titration technique; type: functional
Semliki Forest virus [7] = assay: Antiviral activity against Semliki forest virus infected in african green monkey Vero cells assessed as ratio of viral titer in absence to presence of compound at 50 ug/ml by 50% endpoint titration technique; type: functional
Microsporum canis = assay: Antifungal activity against Microsporum canis at 500 ug/ml; type: functional, organism-based
Trichophyton rubrum = assay: Antifungal activity against Trichophyton rubrum at 500 ug/ml; type: functional, organism-based

| Compound | Activity (Semliki Forest virus [1]) | Activity (Measles morbillivirus) | Ratio (Enterovirus C [2]) | Ratio (Coxsackievirus [3]) | Activity (Human alphaherpesvirus 1) | Activity (Coxsackievirus [4]) | Activity [5] | Activity (Aspergillus niger) | Ratio (Enterovirus C [6]) | Ratio (Semliki Forest virus [7]) | Activity (Microsporum canis) | Activity (Trichophyton rubrum) |
| --- | --- | --- | --- | --- | --- | --- | --- | --- | --- | --- | --- | --- |
| COc1c(-c2ccc(O)c(O)c2)oc2cc(O)cc(O)c2c1=O [3-O-METHYLQUERCETIN] | inactive | inactive | 100000000 | 10000000 | inactive | – | – | – | – | – | – | – |
| O=C(OCc1cc(O)ccc1O[C@@H]1O[C@H](CO)[C@@H](O)[C@H](O)[C@H]1O)c1ccccc1 [SALIREPOSIDE] | – | inactive | – | – | inactive | inactive | inactive | inactive | 10000 | 10000 | inactive | inactive |
| OCc1ccccc1O[C@@H]1O[C@H](CO)[C@@H](O)[C@H](O)[C@H]1O [SALICIN] | inactive | inactive | – | – | inactive | inactive | inactive | inactive | 1000 | – | inactive | inactive |
